Values quoted from earlier work as cited in patent publication US20100317636A1, “REDUCING THE RISK OF CHRONIC LUNG DISEASE IN INFANTS” (China Medical University, a Taiwan corporation, priority 2006, published 2010).

Key:
[1] = Ryrfeldt et al. (1982)

Compound: CCCC1O[C@@H]2C[C@H]3[C@@H]4CCC5=CC(=O)C=C[C@]5(C)[C@H]4[C@@H](O)C[C@]3(C)[C@]2(C(=O)CO)O1 (stereo partly drawn) [Budesonide, 16 alpha, 17 alpha-(22R,S)-propylmethylenedioxypregna-1,4-diene-11 beta, 21-diol-3,20-dione]
- solubility in chloroform (chloroform): freely soluble
- solubility in ethanol (ethanol): sparingly soluble
- solubility in heptane (heptane): practically insoluble
- solubility in water (water): practically insoluble
- degradation in the liver [1]: rapidly degraded
